A word on the IC50: it is the concentration that inhibits the measured activity by half.

Molecules are shown by their SMILES. Like-named read-outs stand apart in the source and are kept apart here.

We go through one compound from patent US7732435B2, “Chromone derivatives useful as antagonists of VR1 receptors” (Novartis AG, priority 2005, dated 2010).

The experiment addresses TRPV1 receptor (UniProt Q8NER1). In words: Calcium mobilisation assay in CHO-K1 cells expressing the TRPV1 receptor (inhibition of capsaicin or low pH activation). In kind it is cell-based, human, rat or guinea pig. The conditions noted are these: species not specified. As to the method: Chinese Hamster Ovary-K1 (CHO-K1) cells, transfected to express either the human, rat or guinea pig TRPV1 receptor, were grown in Minimal Essential Media (MEM) alpha medium without nucleosides supplemented with fetal calf serum (10%), 2 mM L-glutamine, 100 IU/mL penicillin, 100 μg/ml streptomycin and 350-700 μg/ml geneticin. All reagents were supplied by Invitrogen. Cells were grown in T-175 flasks or Costar black, clear-bottomed 96-well view plates and maintained at 37° C. in a 90% humidified incubator with an atmosphere of 5% CO2 and 95% air. The cells were passaged twice a week at a ratio of 1:10 to 1:20 to maintain steady growth. For experimentation, cells were harvested at approximately 80% confluency and plated onto view plates at 40,000 cells per well in 100 μL media and grown overnight.
Calcium Mobilisation Assay […]
A general note: A change in cytosolic calcium serves as a functional read-out for many receptors and channels.

For the compound `CC(C)c1oc2c(ccc3[nH]c(C(C)(F)F)nc32)c(=O)c1-c1ccc(Cl)cc1` [Example 8, 7-(4-Chlorophenyl)-2-(1,1-difluoroethyl)-8-isopropyl-3H-chromeno[7,8-d]imidazol-6-one], the IC50 (TRPV1 stimulated by capsaicin at EC80 concentration, read-out: IC50 (capsacin)) worked out at 68 nM and the IC50 (TRPV1 stimulated by low pH, final pH 5.5, read-out: IC50 (pH 5.5)) amounted to 54 nM.
